Source: patent publication US20230146533A1, “KERATIN BD-10, PREPARATION METHOD THEREFOR AND PHARMACEUTICAL COMPOSITION AND USE THEREOF” (INSTITUTE OF MATERIA MEDICA, CHINESE ACADEMY OF MEDICAL …, priority 2019, published 2023)
Structures can show the parent of a compound that is named as a salt. Marks after values point to notes of the source that are not given here.

What was measured:
[1] = tested on: mice cough induced by ammonia water; test: Antitussive test, cough induced by ammonia water in mice; format: in vivo, ICR mice
Protocol: Animals: male ICR mice; Drugs and reagents: dextromethorphan hydrobromide, ammonia water, 0.2% CMC-Na, protein BD-10; Apparatus: Compressed nebulizer (403T type), balance (XS105DU type). Experiment grouping: • Solvent control group; • Dextromethorphan 15 mg/kg group; • Protein BD-10, 20 mg/kg group, 50 mg/kg group.
Dextromethorphan and different doses of protein BD-10 (administration volume 10 ml/kg) were given orally in groups, and the solvent control group was given the same volume of distilled water. One hour later, mice were put into a sealed box and atomized 10% ammonia water for 10 seconds, and then observed and recorded the incubation period of cough in mice and the number of coughs in 2 minutes.
Record the time point of oral administration, the time point of atomization experiment, the incubation period of mice cough and the number of coughs within 2 minutes, respectively. The incubation period of cough refers to the number of seconds from the start of the atomization of ammonia to the occurrence of cough. The performance of coughing in mice is based on contraction of their abdominal muscles (breast contraction) and opening their mouths at the same time. Calculate the mean and standard error of each group of data, and use TTEST to compare the model group with other groups, and P<0.05 is considered as a significant difference.

[2] = tested on: PLO-induced epilepsy in mice; test: Pilocarpine (PLO) induced convulsive epilepsy in mice; format: in vivo, ICR mice; design: mortality rate: unit not given here; settings: Diazepam 2 mg/kg, PLO 225 mg/kg i.p.
Protocol: Animals: male ICR mice; Drugs: Pilocarpine HCl (PLO, pilocarpine, pilocarpine hydrochloride), Diazepam (diazepam tablets), protein BD-10.
Experiment grouping: • Model group: • Diazepam 2 mg/kg group; • Protein BD-10, 50 mg/kg group, 200 mg/kg group.
The drug was administered once in the afternoon the day before modeling, PLO-225 mg/kg (modeling agent) was injected intraperitoneally 1 hour after the test drug was administered intragastrically on the day of modeling. And positive drug can be administered once 20 minutes before modeling. Observe for 30 minutes after PLO injection.
Observation indicators: (1)Seizure situation: the time of seizures from Grade II to Grade IV; (2)the time to death.
(§1) Seizure grade: Refer to Racine grading standard: Grade 0: No response; Grade I: manifested as twitching of facial muscles or the corners of the mouth; Grade II: can nod; Grade III: twitching of one limb; Grade IV: rigidity or body twitching; Grade V: generalized epilepsy (generalized tonic seizures).
Count the number of Grade IV seizures and deaths in each group of mice in the experiment; Grade II, III and IV incubation period. […] Chi-square test was used for statistics of the number of cases. The mean value and standard error of the incubation period were calculated, and TTEST was used to compare the model group with other groups. P<0.05 was considered as a significant difference.

[3] = tested on: PTZ-induced epilepsy in mice; test: Pentylenetetrazole (PTZ) induced epilepsy in mice; format: in vivo, ICR mice; settings: Retigabine 60 mg/kg, PTZ 65 mg/kg i.p.
Protocol: Medicines: Pentylenetetrazol (PTZ), Retigabine, Protein BD-10.
Experiment grouping: • Model group; • Retigabine 60 mg/kg group; • Protein BD-10, 50 mg/kg group, 200 mg/kg group;
The drug was administered once in the afternoon the day before modeling, On the day of modeling, PTZ-65 mg/kg (modeling agent) was injected intraperitoneal 1 hour after the test drug was administered intragastrically, and the positive drug can be administered once half an hour before modeling. Continue to observe for 15 minutes after injection of PTZ.
Observation index: (1)Seizure situation: the time of seizures from Grade III to Grade VI; (2)Death situation
as §1
Count the cases of seizures and deaths in each group of mice in the experiment; Grade III and IV incubation period. The incubation period of mice that have not attacked to Grade IV is recorded as the maximum of 900 seconds. Chi-square test was used for statistics of the number of cases. Calculate the mean and standard error of the incubation period. Use TTEST to compare the model group with other groups, and P<0.05 is considered as a significant difference.

[4] = tested on: yeast-induced fever model in rats; test: Yeast-induced fever model in SD rats; format: in vivo; settings: aspirin 300 mg/kg oral
Protocol: Animals: 230-260 grams of male SD rats; Medicines: yeast (OXOID LP0021), aspirin (SIGMA A2093), protein BD-10; Instruments: electronic balance (SARTORIUS BP121S type), electronic clinical thermometer (CITIZEN CT-513W type). Experiment grouping: • Normal control group; • Model group: yeast fever model; • Positive control group: Aspirin 300 mg/kg group; • Protein BD-10, 10 mg/kg group, 50 mg/kg group.
(§2) Preparation of experimental animals: After the experimental animals adapt to the experimental environment (temperature 22° C.±2° C., relative humidity 50%±2%) for 1 day. Pre-adaptation to measure rectal temperature at 8:00 and 15:00, rats were fasted and water was taken freely 12 h before experiment, and let the animal to empty its feces before measuring the rectal temperature. Apply petroleum jelly to the electronic thermometer probe before each temperature measurement. Insert the rat rectum 2 cm (can be marked at 2 cm to ensure that the depth of each insertion is consistent), and record the body temperature after the reading is stable.
(§3) Subcutaneous injection of dry yeast to replicate rat fever model: The body temperature of the rats was measured before modeling. Qualified rats with a body temperature of 36.2-37.3° C. were selected and randomly divided into groups with 8 rats in each group. After oral administration of aspirin and different doses of protein BD-10, 20% yeast suspension (10 ml/kg) was injected subcutaneously immediately, and the normal control group was injected intraperitoneally with an equal volume of normal saline. The body temperatures of the rats were monitored after 2 hours for a total of 8 hours.
(§4) According to the body temperature measured at each time point on the day of the experiment, calculate the mean, standard deviation and standard error of the body temperature of each group of rats. The data of each group was compared with TTEST, and P<0.05 was considered as a significant difference.

[5] = tested on: acetic acid writhing of ICR mice; test: Acetic acid writhing test in ICR mice; format: in vivo
Protocol: Animals: male ICR mice; Drugs and reagents: aspirin, physiological saline, glacial acetic acid, protein BD-10. Experiment grouping: • Model group; • Aspirin 300 mg/kg group; • Protein BD-10, 50 mg/kg group, 200 mg/kg group.
One day after the experimental animals adapt to the environment, Aspirin 300 mg/kg, protein BD-10 50 mg/kg, 200 mg/kg were given orally one hour in advance, and the administration volume was 10 ml/kg; Then, 0.6% acetic acid solution was injected intraperitoneally, and the incubation period (seconds) and frequency of writhing in the animal was observed within 15 minutes.
Calculate the mean and standard error of the data in each group. Compared with the model group by TTEST, P<0.05 was considered as statistically different.

[6] = tested on: lipopolysaccharide (LPS) induced fever in SD rats; test: Lipopolysaccharide (LPS) induced fever model in SD rats; format: in vivo; settings: aspirin 300 mg/kg oral
Protocol: Animals: 230-260 grams of male SD rats; Drugs: lipopolysaccharide (LPS, SIGMA L-2880), aspirin (SIGMA A2093), protein BD-10; Instruments: electronic balance (SARTORIUS BP121S type), electronic clinical thermometer (CITIZEN CT-513W type).
Method: the method of intraperitoneal injection of Lipopolysaccharide to replicate rat fever model.
as §2
as §3, with “Intraperitoneal” for “Subcutaneous”, “lipopolysaccharide” for “dry yeast”, “lipopolysaccharide (20 μg/kg, 2” for “20% yeast suspension (10”, “intraperitoneally” for “subcutaneously”
as §4

[7] = 2, 4, 6 and 8 hours after modeling, vs model group P<0.05
[8] = 20% yeast suspension 10 ml/kg s.c., SD rats
[9] = aspirin 300 mg/kg oral one hour before 0.6% acetic acid i.p., observed within 15 minutes

`COc1ccc2c(c1)[C@]13CCCC[C@@H]1[C@H](C2)N(C)CC3` [Dextromethorphan, dextromethorphan hydrobromide, reference compound] was tested, and the “Incubation period (cough)” value ([1]; Dextromethorphan 15 mg/kg oral, 10% ammonia water atomized 10 seconds one hour later, X ± SEM) was 38.4 ± 4.5 s, the Number of coughs ([1]; Dextromethorphan 15 mg/kg oral, 10% ammonia water atomized 10 seconds one hour later, coughs within 2 minutes, X ± SEM) was 34.0 ± 2.9 and the “Effect on incubation period and number of coughs (in words)” value ([1]; dextromethorphan 15 mg/kg group, vs solvent control group P<0.05) was “significant improvement”.
`CN1C(=O)CN=C(c2ccccc2)c2cc(Cl)ccc21` [Diazepam, reference compound] was tested, and the “Grade IV seizure rate” value ([2]; 10 mice) was 0** %, the mortality rate ([2]; 10 mice) was 0 and the “Grade II seizure incubation period” value ([2]; mean ± SEM) was 109 ± 8 s. For the same molecule, the “Grade III seizure incubation period” value ([2]; mean ± SEM) was 182 ± 14 s, the “Grade IV seizure incubation period” value ([2]; mean ± SEM, mice not reaching Grade IV recorded as maximum 1800 seconds) was 1800 ± 0 s and the Cases of deaths ([2]; of 10 mice) was 0. The “Cases of Grade IV” value ([2]; of 10 mice, 30 minutes observation) was 0**.
`CCOC(=O)Nc1ccc(NCc2ccc(F)cc2)cc1N` [Retigabine, reference compound] was tested, and the “Grade IV seizure rate” value ([3]; 10 mice) was 20%**, the mortality rate ([3]; 10 mice) was 0% and the “Grade III seizure incubation period” value ([3]; mean ± SEM) was 83 ± 7 s. The “Grade IV seizure incubation period” value ([3]; mean ± SEM, mice not reaching Grade IV recorded as maximum 900 seconds) was 745 ± 103 s, the Cases of deaths ([3]; of 10 mice) was 0 and the “Cases of Grade IV” value ([3]; of 10 mice, 15 minutes observation) was 2**.
For `CC(=O)Oc1ccccc1C(=O)O` [aspirin, reference compound], the “Effect on body temperature of model rats (in words)” value [4, 7] was “can effectively inhibit the increase in body temperature”, the “Body temperature 2 hours after modeling” value [4, 8] was 37.0 ± 0.1 °C and the “Body temperature 4 hours after modeling” value [4, 8] was 37.0 ± 0.1 °C. For the same molecule, the “Body temperature 6 hours after modeling” value [4, 8] was 37.0 ± 0.1 °C, the “Body temperature 8 hours after modeling” value [4, 8] was 37.0 ± 0.1 °C and the “Effect on writhing incubation period and times of writhing (in words)” value ([5]; Aspirin 300 mg/kg, vs model group P<0.05) was “can significantly delay the incubation period of writhing and reduce the times of writhing”. For the same molecule, the Frequency of writhing [5, 9] was 15.2 ± 2.9 times, the Writhing incubation period [5, 9] was 290.3 ± 37.0 s and the “Effect on body temperature of model rats (in words)” value [6, 7] was “can effectively inhibit the increase in body temperature”. For the same molecule, the “Body temperature 2 hours after modeling” value ([6]; LPS 20 μg/kg i.p., SD rats) was 36.8 ± 0.1 °C, the “Body temperature 4 hours after modeling” value ([6]; LPS 20 μg/kg i.p., SD rats) was 36.9 ± 0.2 °C and the “Body temperature 6 hours after modeling” value ([6]; LPS 20 μg/kg i.p., SD rats) was 36.8 ± 0.2 °C. The “Body temperature 8 hours after modeling” value ([6]; LPS 20 μg/kg i.p., SD rats) was 36.9 ± 0.1 °C.
